Measurements published in US10131652B2, “Pyrimidinyloxy benzene derivatives as herbicides” (E. I. DU PONT DE NEMOURS AND COMPANY, priority 2014, dated 2018).
Where two headings read alike, the source gives them in different places.

Key:
Format in all cases: in vivo
[1] = tested on: barnyardgrass (Echinochloa crus-galli); test: Test B pre-/postemergence plant response; conditions: Echinochloa crus-galli, 240 h, read-out: Plant response rating, Barnyardgrass; for pest or weed control at 125 g/ha: 125 g ai/ha; for pest or weed control at 500 g/ha: 500 g ai/ha
Summary of the method: (§1)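 Visual injury rating, 0 (no effect) to 100 (complete control), vs untreated controls after ~10 d greenhouse. Pre: directed soil spray after planting in loam/sand. Post: plants 2–10 cm, 1–2 leaf stage. Compound in non-phytotoxic solvent plus surfactant.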

[2] = tested on: wheat (Triticum aestivum); test: Test B pre-/postemergence plant response; conditions: Triticum aestivum, 240 h, read-out: Plant response rating, Wheat; for plant injury at 125 g/ha: 125 g ai/ha; for plant injury at 500 g/ha: 500 g ai/ha
Summary of the method: as §1

[3] = tested on: pigweed (Amaranthus retroflexus); test: Test B pre-/postemergence plant response; conditions: Amaranthus retroflexus, 240 h, read-out: Plant response rating, Pigweed; for pest or weed control at 125 g/ha: 125 g ai/ha; for pest or weed control at 500 g/ha: 500 g ai/ha
Summary of the method: as §1

corn (Zea mays) = test: Test B pre-/postemergence plant response; conditions: Zea mays, 240 h; for Corn plant response rating (crop injury, 0 = no effect, 100 = complete kill) at 125 g/ha: 125 g ai/ha; for Corn plant response rating (crop injury, 0 = no effect, 100 = complete kill) at 500 g/ha: 500 g ai/ha
Summary of the method: as §1

[4] = tested on: giant foxtail (Setaria faberii); test: Test B pre-/postemergence plant response; conditions: Setaria faberi, 240 h, read-out: Plant response rating, Foxtail, Giant; for pest or weed control at 125 g/ha: 125 g ai/ha; for pest or weed control at 500 g/ha: 500 g ai/ha
Summary of the method: as §1

rice (Oryza sativa) = test: Test C flooded paddy test plant response; conditions: Oryza sativa; Flood, 250 g ai/ha; scale of 0 to 100 where 0 is no effect and 100 is complete control; 13 to 15 days; read-out: Rice plant response rating
Summary of the method: (§2)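 Visual injury ratings (0, no effect; 100, complete control) were assigned after 13 to 15 days in a greenhouse, comparing treated plants with controls. Compounds had been added straight into paddy water over 2-leaf-stage plants flooded to 3 cm.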

[5] = tested on: barnyardgrass (Echinochloa crus-galli); test: Test C flooded paddy test plant response; conditions: Echinochloa crus-galli; Flood, 250 g ai/ha; scale of 0 to 100 where 0 is no effect and 100 is complete control; 13 to 15 days; read-out: Barnyardgrass plant response rating
Summary of the method: as §2

[6] = tested on: small-flower umbrella sedge (Cyperus difformis); test: Test C flooded paddy test plant response; conditions: Cyperus difformis; Flood, 250 g ai/ha; scale of 0 to 100 where 0 is no effect and 100 is complete control; 13 to 15 days; read-out: Sedge, Umbrella plant response rating
Summary of the method: as §2

[7] = tested on: ducksalad (Heteranthera limosa); test: Test C flooded paddy test plant response; conditions: Heteranthera limosa; Flood, 250 g ai/ha; scale of 0 to 100 where 0 is no effect and 100 is complete control; 13 to 15 days; read-out: Ducksalad plant response rating
Summary of the method: as §2

soybean (Glycine max) = test: Test D pre-/postemergence plant response; conditions: Glycine max; for plant injury at 31 g/ha: 31 g ai/ha; for plant injury at 62 g/ha: 62 g ai/ha; for plant injury at 125 g/ha: 125 g ai/ha; for plant injury at 250 g/ha: 250 g ai/ha
Source text: (§3) Seeds of plant species selected from blackgrass (Alopecurus myosuroides), Italian ryegrass (Lolium multiflorum), winter wheat (Triticum aestivum), galium (catchweed bedstraw, Galium aparine), corn (Zea mays), large (Lg) crabgrass (Digitaria sanguinalis), giant foxtail (Setaria faberii), johnsongrass (Sorghum halepense), lambsquarters (Chenopodium album), morningglory (Ipomoea coccinea), yellow nutsedge (Cyperus esculentus), pigweed (Amaranthus retroflexus), ragweed (common ragweed, Ambrosia elatior), soybean (Glycine max), bamyardgrass (Echinochloa crus-galli), oilseed rape (Brassica napus), waterhemp (common waterhemp, Amaranthus rudis), and velvetleaf (Abutilon theophrasti) were planted into a blend of loam soil and sand and treated preemergence with test chemicals formulated in a non-phytotoxic solvent mixture which included a surfactant. At the same time, plants selected from these crop and weed species and also kochia (Kochia scoparia), wild oat (Avena fatua), and chickweed (common chickweed, Stellaria media) were planted in pots containing Redi-Earth® planting medium (Scotts Company, 14111 Scottslawn Road, Marysville, Ohio 43041) comprising spaghnum peat moss, vermiculite, wetting agent and starter nutrients and treated with postemergence applications of test chemicals formulated in the same manner. Plants ranged in height from 2 to 18 cm (1- to 4-leaf stage) for postemergence treatments. Treated plants and controls were maintained in a greenhouse for 13 to 15 days, after which time all species were compared to controls and visually evaluated. Plant response ratings, summarized in Table D, are based on a scale of 0 to 100 where 0 is no effect and 100 is complete control. A dash (-) response means no test result.

[8] = tested on: lambsquarters (Chenopodium album); test: Test D pre-/postemergence plant response; conditions: Chenopodium album; for pest or weed control at 31 g/ha: 31 g ai/ha; for pest or weed control at 62 g/ha: 62 g ai/ha; for pest or weed control at 125 g/ha: 125 g ai/ha; for pest or weed control at 250 g/ha: 250 g ai/ha
Source text: as §3

[9] = post-emergence, postemergence, 0 to 100 scale, 0 no effect, 100 complete control
[10] = post-emergence, Postemergence, 0 to 100 scale (0 no effect, 100 complete control)
[11] = pre-emergence, Preemergence, 0 to 100 scale where 0 is no effect and 100 is complete control
[12] = post-emergence, Postemergence, scale 0 to 100, 0 no effect, 100 complete control, read-out: Plant response rating, Soybean
[13] = pre-emergence, Preemergence, read-out: Plant response rating (scale 0 to 100), Soybean
[14] = pre-emergence, Preemergence, scale 0 to 100 (0 no effect, 100 complete control), read-out: Plant response rating, Soybean
[15] = post-emergence, Postemergence, scale 0 to 100, 0 no effect, 100 complete control, read-out: Plant response rating, Lambsquarters
[16] = pre-emergence, Preemergence, read-out: Plant response rating (scale 0 to 100), Lambsquarters
[17] = pre-emergence, Preemergence, scale 0 to 100 (0 no effect, 100 complete control), read-out: Plant response rating, Lambsquarters

For `FC(F)c1cc(-c2ccccc2Oc2ncc(Br)cn2)no1` [Compound 62, 5-bromo-2-[2-[5-(difluoromethyl)-3-isoxazolyl]phenoxy]pyrimidine], the pest or weed control at 125 g/ha [1, 9] was 90%, the pest or weed control at 500 g/ha [1, 10] was 100% and the pest or weed control at 125 g/ha [1, 11] was 80%. It also gave a pest or weed control at 500 g/ha [1, 11] of 100%, a plant injury at 125 g/ha [2, 9] of 0% and a plant injury at 500 g/ha [2, 10] of 30%. The plant injury at 125 g/ha [2, 11] was 20%, the plant injury at 500 g/ha [2, 11] was 30% and the pest or weed control at 125 g/ha [3, 9] was 100%. The pest or weed control at 500 g/ha [3, 10] was 100%, the pest or weed control at 125 g/ha [3, 11] was 100% and the pest or weed control at 500 g/ha [3, 11] was 100%. For the same compound, the Corn plant response rating (crop injury, 0 = no effect, 100 = complete kill) at 125 g/ha (corn (Zea mays); [9]) was 10%, the Corn plant response rating (crop injury, 0 = no effect, 100 = complete kill) at 500 g/ha (corn (Zea mays); [10]) was 50% and the Corn plant response rating (crop injury, 0 = no effect, 100 = complete kill) at 125 g/ha (corn (Zea mays); [11]) was 0%. For the same compound, the Corn plant response rating (crop injury, 0 = no effect, 100 = complete kill) at 500 g/ha (corn (Zea mays); [11]) was 20%, the pest or weed control at 125 g/ha [4, 9] was 80% and the pest or weed control at 500 g/ha [4, 10] was 90%. It also gave a pest or weed control at 125 g/ha [4, 11] of 100%, a pest or weed control at 500 g/ha [4, 11] of 100% and a plant injury at 250 g/ha (rice (Oryza sativa)) of 40%. The pest or weed control at 250 g/ha [5] was 35%, the pest or weed control at 250 g/ha [6] was 90% and the pest or weed control at 250 g/ha [7] was 100%. The plant injury at 31 g/ha (soybean (Glycine max); post-emergence, Postemergence, scale 0 to 100 (0 no effect, 100 complete control), read-out: Soybean plant response rating) was 80%, the plant injury at 62 g/ha (soybean (Glycine max); [12]) was 95% and the plant injury at 125 g/ha (soybean (Glycine max); [12]) was 98%. It also gave a plant injury at 250 g/ha (soybean (Glycine max); [12]) of 98%, a plant injury at 125 g/ha (soybean (Glycine max); [13]) of 85% and a plant injury at 250 g/ha (soybean (Glycine max); [13]) of 95%. For the same compound, the plant injury at 31 g/ha (soybean (Glycine max); [14]) was 60%, the plant injury at 62 g/ha (soybean (Glycine max); [14]) was 70% and the pest or weed control at 31 g/ha ([8]; post-emergence, Postemergence, scale 0 to 100 (0 no effect, 100 complete control), read-out: Lambsquarters plant response rating) was 98%. The pest or weed control at 62 g/ha [8, 15] was 98%, the pest or weed control at 125 g/ha [8, 15] was 100% and the pest or weed control at 250 g/ha [8, 15] was 100%. The pest or weed control at 125 g/ha [8, 16] was 98%, the pest or weed control at 250 g/ha [8, 16] was 100% and the pest or weed control at 31 g/ha [8, 17] was 100%. It also gave a pest or weed control at 62 g/ha [8, 17] of 95%.
